The text below walks through data of ChEMBL document CHEMBL1649205, “CraA, a major facilitator superfamily efflux pump associated with chloramphenicol resistance in Acinetobacter baumannii” (2009).

Type in all cases: functional
Assay [1] has as its system Acinetobacter baumannii. Kind of assay: Antimicrobial activity against Acinetobacter baumannii ATCC 19606 expressing open reading frame orf3 encoded efflux pump CraA in presence of efflux pump inhibitor phenyl-arginine-beta-naphthylamide by Etest.
Assay [2] deals with Acinetobacter baumannii. The assay can be described thus: microbe, parasite or virus in culture. The following applies: ATCC 19606.
Description: Antimicrobial activity against Acinetobacter baumannii ATCC 19606 expressing open reading frame orf3 encoded efflux pump CraA by Etest
Assay [3] has as its system Acinetobacter baumannii. The assay can be described thus: Antimicrobial activity against Acinetobacter baumannii JVAB01 expressing disrupted open reading frame orf3 mutant deficient in efflux pump CraA by Etest.
In assay [4] the test system is Acinetobacter baumannii. Kind of assay: Antimicrobial activity against efflux pump CraA deficient Acinetobacter baumannii JVAB01 receiving pJV103 harboring open reading frame orf3 encoded efflux pump CraA by Etest.
The subject of assay [5] is Acinetobacter baumannii. Kind of assay: Antimicrobial activity against Acinetobacter baumannii JVAB01 expressing disrupted open reading frame orf3 mutant deficient in efflux pump CraA in presence of efflux pump inhibitor phenyl-arginine-beta-naphthylamide by Etest.
Assay [6] has as its system Acinetobacter baumannii. The assay can be described thus: Antimicrobial activity against efflux pump CraA deficient Acinetobacter baumannii JVAB01 receiving pJV103 harboring open reading frame orf3 encoded efflux pump CraA in presence of efflux pump inhibitor phenyl-arginine-beta-naphthylamide by Etest.

≈ marks a conversion by molar mass, not a printed value.

In the case of `O=C(N[C@H](CO)[C@H](O)c1ccc([N+](=O)[O-])cc1)C(Cl)Cl` [CHLORAMPHENICOL], the MIC in the assay on Acinetobacter baumannii [1] was 32 µg/mL; against Acinetobacter baumannii [2] it was greater than 256 µg/mL; with Acinetobacter baumannii [3] it was 2 µg/mL (≈ 6.19 µM); in the assay on Acinetobacter baumannii [4], 192 µg/mL (≈ 594 µM); with Acinetobacter baumannii [5], 1.5 µg/mL; in the assay with Acinetobacter baumannii [6], 16 µg/mL.

Turning to `O=C(O)c1cn(C2CC2)c2cc(N3CCNCC3)c(F)cc2c1=O` [CIPROFLOXACIN], the MIC against Acinetobacter baumannii [2], against Acinetobacter baumannii [3] and against Acinetobacter baumannii [4] was 0.25 µg/mL (≈ 0.754 µM) in each case.

For `CCC[C@@H]1C[C@@H](C(=O)N[C@@H]([C@H]2O[C@H](SC)[C@H](O)[C@@H](O)[C@H]2O)[C@H](C)Cl)N(C)C1` [CLINDAMYCIN], the MIC with Acinetobacter baumannii [2], against Acinetobacter baumannii [3] and against Acinetobacter baumannii [4] was greater than 256 µg/mL in each case.

As to `CC[C@H]1OC(=O)[C@H](C)[C@@H](O[C@H]2C[C@@](C)(OC)[C@@H](O)[C@H](C)O2)[C@H](C)[C@@H](O[C@@H]2O[C@H](C)C[C@H](N(C)C)[C@H]2O)[C@](C)(O)C[C@@H](C)C(=O)[C@H](C)[C@@H](O)[C@]1(C)O` [ERYTHROMYCIN], the MIC against Acinetobacter baumannii [2], in the assay on Acinetobacter baumannii [3] and against Acinetobacter baumannii [4] was 1.5 µg/mL (≈ 2.04 µM) in each case.

As for `C[C@@H](O)[C@H]1C(=O)N2C(C(=O)O)=C(SCCNC=N)C[C@H]12` [IMIPENEM ANHYDROUS], the MIC against Acinetobacter baumannii [2], against Acinetobacter baumannii [3] and with Acinetobacter baumannii [4] was 0.75 µg/mL (≈ 2.51 µM) in each case.

In the case of `CCn1cc(C(=O)O)c(=O)c2ccc(C)nc21` [NALIDIXIC ACID], the MIC in the assay with Acinetobacter baumannii [2], against Acinetobacter baumannii [3] and against Acinetobacter baumannii [4] was 12 µg/mL (≈ 51.7 µM) throughout.

In the case of `CCn1cc(C(=O)O)c(=O)c2cc(F)c(N3CCNCC3)cc21` [NORFLOXACIN], the MIC against Acinetobacter baumannii [2], against Acinetobacter baumannii [3] and with Acinetobacter baumannii [4] was 6 µg/mL (≈ 18.8 µM) throughout.

In the case of `CN(C)[C@@H]1C(O)=C(C(N)=O)C(=O)[C@@]2(O)C(O)=C3C(=O)c4c(O)cccc4[C@@](C)(O)[C@H]3C[C@@H]12` [TETRACYCLINE], the MIC was found to be 6 µg/mL (≈ 13.5 µM) against Acinetobacter baumannii [2], 6 µg/mL (≈ 13.5 µM) with Acinetobacter baumannii [3] and 96 µg/mL (≈ 216 µM) with Acinetobacter baumannii [4].
